Measurements from patent US20260284082A1, “TARGETING THE PANX1-P2Y2R-TRPV4 PATHWAY TO TREAT LUNG ISCHEMIA-REPERFUSION INJURY” (UNIVERSITY OF VIRGINIA PATENT FOUNDATION, priority 2023, published 2026).

Columns and labels:
[1] = test system: pulmonary endothelium of small PAs; assay: Baseline endothelial Ca2+ signaling in en face small PAs after lung IR (Fluo-4 confocal imaging); assay type: cell-based, mice
Procedure: (§1) Murine lung IR model: A well-established left lung IRI model involving temporary in vivo ligation of the left hilum (pulmonary artery, vein, and airway) was used.^6 Briefly, mice were anesthetized with inhaled isoflurane, intubated, ventilated with room air at 150 strokes/min with a tidal volume of […] (Harvard Apparatus Co, South Natick, MA), and heparinized (20 U/kg: Hospira Inc, Lake Forest, IL). An anterolateral thoracotomy was performed through the fourth intercostal space to expose the left hilum. A 6-0 Prolene suture (Ethicon. Somerville, NJ) was passed around the left hilum, and the suture ends were passed through a 5-mm length of polyethylene (PE)-50 tubing. A surgical clip was used to fashion a Rummel tourniquet to provide temporary occlusion of the left hilar structures. The thoracotomy was closed, anesthesia was weaned, and analgesia was administered (intraperitoneal buprenorphine. 0.2 mg/kg). Animals recovered in their cages during the 1-hour ischemic period, after which they were anesthetized again and intubated, the Rummel tourniquet was removed, and the thoracotomy was closed. Animals were again extubated, recovered in their cage, and monitored during the 2-hour reperfusion period. Sham animals underwent the same surgical procedure except that application of the Rummel tourniquet to induce ischemia was omitted; thus, these animals were perfused for a total of 3 hours.
Ca^2+ imaging in Pas: Ca^2+ imaging in small Pas was performed as previously described.8 Fourth-order, small (~50 μm diameter) Pas (see FIG. 1B) were dissected from left lungs in cold HEPES-buffered physiological salt solution (HEPES-PSS; 10 mM HEPES, 134 mM NaCl, 6 mM KCl, 1 mM MgCl2 hexahydrate, 2 mM CaCl2) dihydrate, and 7 mM dextrose; pH adjusted to 7.4 using 1 M NaOH). […] Fluo-4 was excited using a 488-nm solid-state laser, and emitted fluorescence was captured using a 525/36-nm band-pass filter. […] Baseline Ca^2+ signaling activity was recorded in the absence of CPA. […]

TRPV4EC channels = assay: TRPV4 sparklet activity in endothelium of small PAs after lung IR (in presence of CPA); assay type: cell-based, mice
Procedure: as §1, with “Sham animals underwent the same surgical procedure except that application of the Rummel tourniquet to induce ischemia was omitted; thus, these animals were perfused for a total of 3 hours.” left out
Ca^2+ imaging in Pas: Ca^2+ imaging in small Pas was performed as previously described.8 Fourth-order, small (~50 μm diameter) Pas (see FIG. 1B) were dissected from left lungs in cold HEPES-buffered physiological salt solution (HEPES-PSS; 10 mM HEPES, 134 mM NaCl, 6 mM KCl, 1 mM MgCl2 hexahydrate, 2 mM CaCl2) dihydrate, and 7 mM dextrose; pH adjusted to 7.4 using 1 M NaOH). […] Fluo-4 was excited using a 488-nm solid-state laser, and emitted fluorescence was captured using a 525/36-nm band-pass filter. […] Baseline Ca^2+ signaling activity was recorded in the absence of CPA.
TRPV4 sparklets were assessed as increases in fluorescence relative to baseline fluorescence, obtained by averaging 10 quiescent images prior to stimulation. […]

[2] = ARC 10 μmol/L, small PAs of C57BL6/J mice

| SMILES | increase in baseline endothelial Ca2+ signals after lung IR ([1]; GSK219 100 nM, small PAs of control mice, 1 h ischemia + 2 h reperfusion) | IR-induced increase in TRPV4EC sparklet activity (TRPV4EC channels; GSK219, CPA 20 μM present, small PAs after lung IR) | lung IR-induced increase in baseline endothelial Ca2+ signaling activity [1, 2] | lung IR-induced increase in TRPV4EC sparklet activity (TRPV4EC channels; [2]) |
| --- | --- | --- | --- | --- |
| O=C(NC1(c2ccccc2)CC1)c1c(CN2CCC(N3CCCCC3)CC2)c(-c2cccc(C(F)(F)F)c2)nc2cc(Br)ccc12 [GSK219, GSK2193874] | completely abolished | inhibited |  |  |
| Cc1ccc2c(c1)C=Cc1cc(C)ccc1C2c1cn(Cc2ccc(C(=O)Nc3nn[nH]n3)o2)c(=O)[nH]c1=S [ARC, AR-C 118925XX] |  |  | abolished | inhibited |
